The record followed here is patent publication US12109177B2 (priority 2021, dated 2024).

One data set has as its system VX2 brain tumor. The note with it: rabbit, in vivo.
The subject of data set [1] is blood neutrophils. To be noted: rabbit, in vivo.
Data set [2] has as its system blood neutrophils. To be noted: mouse, in vivo.
Another data set relates to flank GL261 tumor. To be noted: in vivo.

Entries after “also recorded” stand apart in the source; their conditions may differ. Read-outs that look alike come from different tables or passages of the source.

As to `O=P1(N(CCCl)CCCl)NCCCO1` (stereo not drawn) [CPA, cyclophosphamide], the long-term survivors result in the data set with VX2 brain tumor is “without any long-term survivor”. Further, the blood neutrophil count result in the data set with blood neutrophils [1] is on record as “significant neutrophil suppression”.

Take `NC(=O)NO` [HU, hydroxyurea]: in the data set with blood neutrophils [2], the blood neutrophil count result is given as “greatly suppressed the neutrophil levels; also recorded: drastically reduced the neutrophil counts” and the “other blood cell counts” value is given as “also affected in various degrees”. In addition, the lymphocyte count result with blood neutrophils [2] (ip) is given as “significant drop of lymphocytes”. For the same compound, the “mice died of treatment-related (immediate) toxicity” value with flank GL261 tumor (female, C57BL6, mouse) was 2/12. Besides, in the data set on flank GL261 tumor (mouse), the “mice cured (total tumor clearance, absence of any tumor after 3 weeks)” value is 9/12; the “mice with partial tumor clearance (initial reduction, later regrowth)” value is reported as 1/12; the “therapeutic effect of agent alone” value is reported as “did not show any noticeable therapeutic effects”. In the data set on VX2 brain tumor, the “deaths from tumor regrowth” value is on record as “one”, the “intratumoral accumulation of neutrophils” value is given as “effective in suppressing the intratumoral accumulation of neutrophils” and the long-term survivors was 8. For the same compound, in the data set on blood neutrophils [1], the lymphocyte counts entry is listed as “not significantly affected”, the “other blood cell types” value is “has not affected other blood cell types significantly” and the “time to neutrophil count rebound after spore injection” value is recorded as “at least 3 days”.
